Test results: the Kinase Knowledgebase extract (Sharma et al. 2016)

Biological target: EGFR (human) (UniProt P00533)
Sequence (P00533 whole entry, looked up): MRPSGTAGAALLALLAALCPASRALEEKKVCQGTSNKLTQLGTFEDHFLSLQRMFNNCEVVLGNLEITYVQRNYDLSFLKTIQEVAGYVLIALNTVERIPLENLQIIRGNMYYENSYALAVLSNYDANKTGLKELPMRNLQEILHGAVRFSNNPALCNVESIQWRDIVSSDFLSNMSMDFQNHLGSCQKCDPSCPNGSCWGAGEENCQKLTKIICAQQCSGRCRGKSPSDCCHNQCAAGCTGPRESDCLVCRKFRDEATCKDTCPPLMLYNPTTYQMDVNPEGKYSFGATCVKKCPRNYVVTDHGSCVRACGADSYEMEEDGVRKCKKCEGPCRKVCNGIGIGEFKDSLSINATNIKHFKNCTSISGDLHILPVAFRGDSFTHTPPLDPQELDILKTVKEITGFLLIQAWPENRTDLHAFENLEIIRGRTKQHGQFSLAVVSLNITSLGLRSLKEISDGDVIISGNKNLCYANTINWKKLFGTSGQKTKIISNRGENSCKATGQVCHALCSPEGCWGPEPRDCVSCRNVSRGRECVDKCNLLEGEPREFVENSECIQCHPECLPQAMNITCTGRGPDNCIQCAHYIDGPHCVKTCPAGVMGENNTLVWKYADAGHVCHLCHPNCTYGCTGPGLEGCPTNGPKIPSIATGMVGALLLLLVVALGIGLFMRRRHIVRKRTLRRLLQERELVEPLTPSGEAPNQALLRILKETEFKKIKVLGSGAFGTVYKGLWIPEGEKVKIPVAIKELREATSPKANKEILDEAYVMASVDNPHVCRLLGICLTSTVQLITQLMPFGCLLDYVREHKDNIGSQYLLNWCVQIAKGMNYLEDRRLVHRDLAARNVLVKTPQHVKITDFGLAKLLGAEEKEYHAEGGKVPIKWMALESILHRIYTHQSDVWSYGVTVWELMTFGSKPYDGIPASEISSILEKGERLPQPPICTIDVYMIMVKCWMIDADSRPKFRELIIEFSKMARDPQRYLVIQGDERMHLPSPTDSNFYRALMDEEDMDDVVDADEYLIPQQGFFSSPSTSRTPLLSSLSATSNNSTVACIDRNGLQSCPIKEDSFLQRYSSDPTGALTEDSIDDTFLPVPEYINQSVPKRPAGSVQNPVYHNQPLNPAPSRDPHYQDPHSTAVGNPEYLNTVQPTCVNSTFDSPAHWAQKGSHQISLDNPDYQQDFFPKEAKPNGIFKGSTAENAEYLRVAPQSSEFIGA

IC50, > 50 µM:
O=C(Nc1ccc(F)cc1F)c1ccccc1O
O=C(Nc1ccc(F)cc1)c1cc(Br)cc(Br)c1O
O=C(Nc1ccc(F)cc1)c1ccccc1O
Cc1ccc(C(=O)Nc2ccc(C(C)C)cc2)c(O)c1
O=C(Nc1ccccc1)c1ccccc1O
Cc1ccc(C(=O)Nc2ccc(Cl)cc2)c(O)c1
O=C(Nc1ccc(F)cc1)c1cc(I)ccc1O
Cc1ccc(C(=O)Nc2ccccc2)c(O)c1
Cc1ccc(C(=O)Nc2ccc(F)cc2F)c(O)c1
O=C(Nc1ccc(Br)cc1)c1ccccc1O
